Results taken from PubChem BioAssay AID330 (DTP/NCI, 2004).
Values joined by “and” are separate entries in the source; they are usually repeats but may differ in a detail not shown here. Equal values may be shown once. Inconclusive results and toxic doses are left out. How the source made its calls: active means survival T/C of 150% or more; inactive means T/C below 125% in these data.

Test system: P388 leukemia ip, CD2F1 mice, survival T/C
Experiment: NCI In Vivo Anticancer Drug Screen. Data for tumor model P388 Leukemia (intraperitoneal) in CD2F1 (CDF1) mice
Conditions: endpoint: median survival time, higher = longer survival
Procedure, shortened: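 Mice carrying the transplanted tumor received test compound or vehicle. Survival was recorded in each group, and the value is the treated-group measurement divided by that of the vehicle-treated control group.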

[1] = dose: 3.75 mg/kg/injection, schedule: Q01DX005 (ip), vehicle: saline
[2] = dose: 7.5 mg/kg/injection, schedule: Q01DX005 (ip), vehicle: saline
[3] = dose: 12.5 mg/kg/injection, schedule: Q01DX009 (ip), vehicle: saline
[4] = dose: 25.0 mg/kg/injection, schedule: Q01DX009 (ip), vehicle: saline
[5] = dose: 50.0 mg/kg/injection, schedule: Q01DX009 (ip), vehicle: saline
[6] = dose: 100.0 mg/kg/injection, schedule: Q01DX001 (ip), vehicle: saline
[7] = dose: 200.0 mg/kg/injection, schedule: Q01DX001 (ip), vehicle: saline
[8] = dose: 400.0 mg/kg/injection, schedule: Q01DX001 (ip), vehicle: saline
[9] = dose: 25.0 mg/kg/injection, schedule: Q01DX009 (ip), vehicle: saline with Tween-80
[10] = dose: 50.0 mg/kg/injection, schedule: Q01DX009 (ip), vehicle: saline with Tween-80
[11] = dose: 100.0 mg/kg/injection, schedule: Q01DX009 (ip), vehicle: saline with Tween-80
[12] = dose: 100.0 mg/kg/injection, schedule: Q04DX003 (ip), vehicle: saline with Tween-80
[13] = dose: 50.0 mg/kg/injection, schedule: Q01DX009 (ip), vehicle: Klucel (hydroxypropylcellulose) (HPC)
[14] = dose: 100.0 mg/kg/injection, schedule: Q01DX009 (ip), vehicle: Klucel (hydroxypropylcellulose) (HPC)
[15] = dose: 200.0 mg/kg/injection, schedule: Q01DX009 (ip), vehicle: Klucel (hydroxypropylcellulose) (HPC)
[16] = dose: 100.0 mg/kg/injection, schedule: Q01DX009 (ip), vehicle: saline
[17] = dose: 12.5 mg/kg/injection, schedule: Q01DX005 (ip), vehicle: saline with Tween-80

Measured: T/C

CC(=O)OCCN1CCN(CCCN2c3ccccc3Sc3ccc(C(F)(F)F)cc32)CC1
inactive: dose: 100.0 mg/kg/injection, schedule: Q04DX002 (ip), vehicle: saline 89 % of control and 90 % of control

Nc1cc2cccc[n+]2c2ccccc12
inactive: [1] 110 % of control | [2] 106 % of control | dose: 15.0 mg/kg/injection, schedule: Q01DX005 (ip), vehicle: saline 120 % of control

CCOC(=O)Cc1ccc(N(CCO)CCO)cc1
inactive: dose: 60.0 mg/kg/injection, schedule: Q01DX005 (ip), vehicle: saline with Tween-80 100 % of control | dose: 120.0 mg/kg/injection, schedule: Q01DX005 (ip), vehicle: saline with Tween-80 103 % of control | dose: 240.0 mg/kg/injection, schedule: Q01DX005 (ip), vehicle: saline with Tween-80 101 % of control

C[N+](C)(C)CCO
inactive: [3] 105 % of control | [4] 98 % of control | [5] 96 % of control

CCCCC/C=C/CCCCCCC1C=CCC1 (stereo not given)
inactive: [6] 101 % of control | [7] 100 % of control | [8] 100 % of control

Cn1c2ccccc2c2cnn3cnnc3c21
inactive: dose: 50.0 mg/kg/injection, schedule: Q01DX001 (ip), vehicle: Klucel (hydroxypropylcellulose) (HPC) 91 % of control | dose: 100.0 mg/kg/injection, schedule: Q01DX001 (ip), vehicle: Klucel (hydroxypropylcellulose) (HPC) 88 % of control | dose: 200.0 mg/kg/injection, schedule: Q01DX001 (ip), vehicle: Klucel (hydroxypropylcellulose) (HPC) 96 % of control

COc1ccc(-c2coc3cc(OC4OC(COC5OCC(O)C(O)C5O)C(O)C(O)C4O)cc(O)c3c2=O)cc1 (stereo not given)
inactive: [9] 103 % of control | [10] 98 % of control | [11] 102 % of control

C=C(OC(=O)CN(C)C)c1ccccc1
inactive: [12] 98 % of control | dose: 200.0 mg/kg/injection, schedule: Q04DX003 (ip), vehicle: saline with Tween-80 100 % of control | dose: 400.0 mg/kg/injection, schedule: Q04DX003 (ip), vehicle: saline with Tween-80 94 % of control

CCC(C)C(=O)C(Br)C(Br)c1ccccc1 (stereo not given)
inactive: [13] 101 % of control | [14] 100 % of control | [15] 101 % of control

Cc1nc2ccccc2c(=O)n1C(C)C
inactive: [5] 99 % of control | [16] 100 % of control | dose: 200.0 mg/kg/injection, schedule: Q01DX009 (ip), vehicle: saline 104 % of control

Oc1c(CNCCCN2CCCC2)cc(Cl)c2cccnc12
inactive: [3] 102 % of control and 107 % of control | [4] 91 % of control and 96 % of control | [5] 88 % of control and 95 % of control | [16] 110 % of control and 112 % of control

CCCCc1ccc(C(N)=O)nc1
inactive: dose: 50.0 mg/kg/injection, schedule: Q01DX005 (ip), vehicle: Klucel (hydroxypropylcellulose) (HPC) 104 % of control | dose: 100.0 mg/kg/injection, schedule: Q01DX005 (ip), vehicle: Klucel (hydroxypropylcellulose) (HPC) 99 % of control

C[C@]12CC[C@H]3[C@@H](CCC4=CC(=O)CC[C@@]43C)[C@@H]1CC[C@@H]2OC(=O)Cc1ccc(N(CCCl)CCCl)cc1
inactive: [12] 112 % of control | dose: 264.0 mg/kg/injection, schedule: Q04DX003 (ip), vehicle: saline with Tween-80 109 % of control

Cc1ccc(/C=C/C(=O)C(CN(C)C)CN(C)C)cc1C
inactive: dose: 6.25 mg/kg/injection, schedule: Q01DX005 (ip), vehicle: saline with Tween-80 100 % of control | [17] 109 % of control

CCCCCCCCCC1(CC(=O)OCC)SCCN1C(N)=O (stereo not given)
inactive: [13] 113 % of control | [14] 107 % of control | [15] 115 % of control

CC(C)c1ccc(O)c(=O)cc1
inactive: [9] 99 % of control | [10] 102 % of control | [11] 114 % of control

COC(=O)[CH2][Sn]([CH2]C(=O)OC)([CH]1CCCCC1)[CH]1CCCCC1
inactive: dose: 1.56 mg/kg/injection, schedule: Q01DX005 (ip), vehicle: Klucel (hydroxypropylcellulose) (HPC) 104 % of control | dose: 3.12 mg/kg/injection, schedule: Q01DX005 (ip), vehicle: Klucel (hydroxypropylcellulose) (HPC) 88 % of control | dose: 6.25 mg/kg/injection, schedule: Q01DX005 (ip), vehicle: Klucel (hydroxypropylcellulose) (HPC) 111 % of control and 88 % of control

CCCCC(CC)COP(=O)(CC(CC)CCCC)OCC(CC)CCCC (stereo not given)
inactive: dose: 6.25 mg/kg/injection, schedule: Q01DX009 (ip), vehicle: saline 109 % of control | [3] 109 % of control | [4] 109 % of control | dose: 25.0 mg/kg/injection, schedule: Q04DX003 (ip), vehicle: saline 100 % of control | dose: 50.0 mg/kg/injection, schedule: Q04DX003 (ip), vehicle: saline 100 % of control | dose: 100.0 mg/kg/injection, schedule: Q04DX003 (ip), vehicle: saline 113 % of control

CN(C)CCCN1c2ccccc2Cc2ccccc21
inactive: [17] 111 % of control | dose: 25.0 mg/kg/injection, schedule: Q01DX005 (ip), vehicle: saline with Tween-80 108 % of control | dose: 50.0 mg/kg/injection, schedule: Q01DX005 (ip), vehicle: saline with Tween-80 100 % of control and 111 % of control | dose: 100.0 mg/kg/injection, schedule: Q01DX005 (ip), vehicle: saline with Tween-80 114 % of control

C=C(CN(C)C)C(=O)c1ccccc1Cl
inactive: dose: 1.8 mg/kg/injection, schedule: Q01DX005 (ip), vehicle: saline 109 % of control | [1] 106 % of control | [2] 105 % of control and 107 % of control

O=C(Nc1cccc(Cl)c1)c1cc(N=Nc2ccc([N+](=O)[O-])cc2Cl)ccc1O
inactive: dose: 12.5 mg/kg/injection, schedule: Q01DX009 (ip), vehicle: Klucel (hydroxypropylcellulose) (HPC) 104 % of control | dose: 12.5 mg/kg/injection, schedule: Q01DX009 (ip), vehicle: saline with Tween-80 105 % of control | dose: 25.0 mg/kg/injection, schedule: Q01DX009 (ip), vehicle: Klucel (hydroxypropylcellulose) (HPC) 113 % of control | dose: 25.0 mg/kg/injection, schedule: Q04DX003 (ip), vehicle: Klucel (hydroxypropylcellulose) (HPC) 107 % of control | [13] 113 % of control | dose: 50.0 mg/kg/injection, schedule: Q04DX003 (ip), vehicle: Klucel (hydroxypropylcellulose) (HPC) 107 % of control | [14] 118 % of control | dose: 100.0 mg/kg/injection, schedule: Q04DX003 (ip), vehicle: Klucel (hydroxypropylcellulose) (HPC) 115 % of control | dose: 200.0 mg/kg/injection, schedule: Q04DX003 (ip), vehicle: Klucel (hydroxypropylcellulose) (HPC) 115 % of control

Fc1ccc(NC(=S)SCc2ccc3c(c2)OCO3)cc1
inactive: dose: 50.0 mg/kg/injection, schedule: Q01DX009 (ip), vehicle: suspension in saline 101 % of control | dose: 100.0 mg/kg/injection, schedule: Q01DX009 (ip), vehicle: suspension in saline 101 % of control | dose: 200.0 mg/kg/injection, schedule: Q01DX009 (ip), vehicle: suspension in saline 116 % of control

Cn1c(-c2ccccc2)c(C(=O)CC(=O)CN2CCOCC2)c2ccccc21
inactive: [6] 98 % of control | [7] 108 % of control | [8] 97 % of control
